These compounds were tested against S1P1/EDG1 (Homo sapiens, UniProt P21453) (assay: S1P1 CRE-bla CHOK1 reporter assay (inhibition of Forskolin induced cAMP)). Details: agonist activity range, Table 2; read-out: S1P1 ACTIVITY.
Assay type: cell-based
Source text: A mammalian expression plasmid containing S1P1/EDG1 cloned into pcDNA3.1 was purchased from Missouri S&T cDNA Resource Centre. The nucleotide and amino acid sequence of human S1P1/EDG1 are published in Hla and Maciag (J Biol Chem, 265(1990), 9308-9313). S1P1/pcDNA3.1 was transfected into the CRE-bla CHO K1 (Invitrogen) cell line, and stable single cell clones were selected using standard techniques. Expression of functional SIP1/EDG1 receptor was confirmed by cell surface FACS with a S1P1 antibody (R&D Systems, clone 218713) and S1P-mediated inhibition of Forskolin induced cAMP.
Cells were seeded into 384-well black wall/clear bottom plates at 10^4 cells/well/19.5 μl assay media (DMEM-phenol free, 0.5% charcoal/dextran stripped serum, 2 mM glutamine, 0.1 mM NEAA, 1 mM Na-Pyruvate, 25 mM Hepes) and incubated for 18 hrs at 37° C. in 5% CO2. Dose response curves (10-point) were generated in 10 mM Hepes, 0.1% Pluronic F127, in the presence of Forskolin. Cells were treated with 0.5 μl compound in the presence of 2 μM Forskolin for 4 hrs at 37° C. The FRET-based β-lactamase fluorescent substrate (LiveBLAzer™ FRET B/G Loading Kit CC4-AM; Invitrogen) was prepared according to manufacturer's directions, and incubated with cells for 2 hrs at room temperature. Plates were read at Ex:410/Em:458 and Ex:410/Em:522, and the response ratio determined. Data was analyzed by non-linear regression to determine the EC50 for inhibition of Forskolin induced cAMP.

S1P1/EDG1, sequence (P21453 whole entry): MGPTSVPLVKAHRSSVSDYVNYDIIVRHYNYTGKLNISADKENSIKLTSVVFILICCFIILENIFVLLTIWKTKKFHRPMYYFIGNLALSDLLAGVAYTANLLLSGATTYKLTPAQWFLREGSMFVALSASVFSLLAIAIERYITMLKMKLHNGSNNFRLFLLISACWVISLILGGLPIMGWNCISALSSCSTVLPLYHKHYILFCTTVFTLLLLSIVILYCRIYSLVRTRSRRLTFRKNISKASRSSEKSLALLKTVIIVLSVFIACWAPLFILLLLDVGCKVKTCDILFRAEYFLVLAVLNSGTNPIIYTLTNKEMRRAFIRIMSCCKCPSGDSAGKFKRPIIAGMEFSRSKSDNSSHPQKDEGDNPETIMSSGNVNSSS

Row | SMILES | EC50 [nM]
1 | CC(C)Oc1ccc(-c2nnc(-c3cccc4c3CC[C@@H]4NC(=O)N3CCC(O)CC3)s2)cc1C#N [Compound 62] | 0.5 to 5
2 | CC(C)Oc1ccc(-c2nnc(-c3cccc4c3CC[C@@H]4NC(=O)N3CC(O)C3)s2)cc1C#N [Compound 64] | 0.5 to 5
3 | CC(C)Oc1ccc(-c2nnc(-c3cccc4c3CC[C@@H]4NC(=O)N3CC(O)C3)s2)cc1C#N [Compound 65] | 0.05 to 0.5
4 | CC(C)Oc1ccc(-c2nnc(-c3cccc4c3CC[C@H]4NC(=O)N(C)C)s2)cc1C#N [Compound 66] | 0.05 to 0.5
5 | CC(C)Oc1ccc(-c2nnc(-c3cccc4c3CC[C@@H]4NC(=O)N(C)C)s2)cc1C#N [Compound 67] | 0.5 to 5
6 | COC(=O)N[C@H]1CCc2c(-c3nnc(-c4ccc(OC(C)C)c(C#N)c4)s3)cccc21 [Compound 68] | 0.05 to 0.5
7 | CC(C)Oc1ccc(-c2ncc(-c3cccc4c3CC[C@@H]4O)s2)cc1C#N [Compound 70, (S)-5-(5-(1-hydroxy-2,3-dihydro-1H-inden-4-yl)thiazol-2-yl)-2-isopropoxybenzonitrile] | 0.5 to 5
8 | CC(C)Oc1ccc(-c2ncc(-c3cccc4c3CC[C@@H]4NC(=O)CO)s2)cc1C#N [Compound 73, (S)-N-(4-(2-(3-cyano-4-isopropoxyphenyl)thiazol-5-yl)-2,3-dihydro-1H-inden-1-yl)-2-hydroxyacetamide] | 0.05 to 0.5
9 | COCC(=O)N[C@H]1CCc2c(-c3cnc(-c4ccc(OC(C)C)c(C#N)c4)s3)cccc21 [Compound 75] | 0.05 to 0.5
10 | COCC(=O)N[C@H]1CCc2c(-c3cnc(-c4ccc(OC(C)C)c(C#N)c4)s3)cccc21 [Compound 76, (S)-N-(4-(2-(3-cyano-4-isopropoxyphenyl)thiazol-5-yl)-2,3-dihydro-1H-inden-1-yl)-2-methoxyacetamide] | 0.5 to 5
11 | CC(C)Oc1ccc(-c2ncc(-c3cccc4c3CC[C@@H]4NC(=O)CN)s2)cc1C#N [Compound 77] | 0.05 to 0.5
12 | CC(C)Oc1ccc(-c2ncc(-c3cccc4c3CC[C@@H]4NC(=O)CN)s2)cc1C#N [Compound 78] | 0.5 to 5
13 | CC(C)Oc1ccc(-c2ncc(-c3cccc4c3CC[C@@H]4NC(=O)[C@H](N)CO)s2)cc1C#N [Compound 79] | 0.05 to 0.5
14 | CC(C)Oc1ccc(-c2ncc(-c3cccc4c3CC[C@@H]4NC(=O)CN(C)C)s2)cc1C#N [Compound 81] | 0.5 to 5
15 | CC(C)Oc1ccc(-c2ncc(-c3cccc4c3CC[C@@H]4NC(=O)Cc3ccccc3)s2)cc1C#N [Compound 83] | > 5
16 | CC(C)Oc1ccc(-c2ncc(-c3cccc4c3CC[C@@H]4NC(=O)CN3CCCC3)s2)cc1C#N [Compound 85] | > 5
17 | CC(=O)N[C@H]1CCc2c(-c3cnc(-c4ccc(OC(C)C)c(C#N)c4)s3)cccc21 [Compound 87] | 0.05 to 0.5
18 | CC(=O)N[C@H]1CCc2c(-c3cnc(-c4ccc(OC(C)C)c(C#N)c4)s3)cccc21 [Compound 88] | 0.5 to 5
19 | COC(=O)N[C@H]1CCc2c(-c3cnc(-c4ccc(OC(C)C)c(C#N)c4)s3)cccc21 [Compound 89] | 0.5 to 5
20 | CC(C)Oc1ccc(-c2ncc(-c3cccc4c3CC[C@@H]4NCCO)s2)cc1C#N [Compound 92, (S)-5-(5-(1-((2-hydroxyethyl)amino)-2,3-dihydro-1H-inden-4-yl)thiazol-2-yl)-2-isopropoxybenzonitrile] | 0.5 to 5
21 | COCCN[C@H]1CCc2c(-c3cnc(-c4ccc(OC(C)C)c(C#N)c4)s3)cccc21 [Compound 93] | 0.5 to 5
22 | CC(C)Oc1ccc(-c2ncc(-c3cccc4c3CCC4N[C@H](C)CO)s2)cc1C#N (stereo partly drawn) [Compound 95] | 0.5 to 5
23 | CC(C)Oc1ccc(-c2ncc(-c3cccc4c3CC[C@@H]4NCC(=O)O)s2)cc1C#N [Compound 97, (S)-2-((4-(2-(3-cyano-4-isopropoxyphenyl)thiazol-5-yl)-2,3-dihydro-1H-inden-1-yl)amino)acetic acid] | 0.05 to 0.5
24 | CC(C)Oc1ccc(-c2ncc(-c3cccc4c3CC[C@@H]4NCC(=O)N(C)C)s2)cc1C#N [Compound 98] | 0.5 to 5
25 | COC(=O)CN[C@H]1CCc2c(-c3cnc(-c4ccc(OC(C)C)c(C#N)c4)s3)cccc21 [Compound 99, (S)-methyl 2-((4-(2-(3-cyano-4-isopropoxyphenyl)thiazol-5-yl)-2,3-dihydro-1H-inden-1-yl)amino)acetate] | 0.5 to 5
26 | CC(C)Oc1ccc(-c2ncc(-c3cccc4c3CC[C@@H]4NCC(=O)N3CCCC3)s2)cc1C#N [Compound 100] | 0.05 to 0.5
27 | CC(C)Oc1ccc(-c2ncc(-c3cccc4c3CC[C@@H]4NCC(=O)N3CCCC3)s2)cc1C#N [Compound 101] | > 5

Row | SMILES | EC50 [nM]
28 | CC(C)Oc1ccc(-c2ncc(-c3cccc4c3CC[C@@H]4NCC(=O)N3CC[C@H](O)C3)s2)cc1C#N [Compound 103] | 0.05 to 0.5
29 | CC(C)Oc1ccc(-c2ncc(-c3cccc4c3CC[C@@H]4NCC(=O)N3CC[C@H](O)C3)s2)cc1C#N [Compound 104, 5-(5-((S)-1-((2-((S)-3-hydroxypyrrolidin-1-yl)-2-oxoethyl)amino)-2,3-dihydro-1H-inden-4-yl)thiazol-2-yl)-2-isopropoxybenzonitrile] | 0.5 to 5
30 | CC(C)Oc1ccc(-c2ncc(-c3cccc4c3CC[C@@H]4NCC(=O)N3CC[C@H](O)C3)s2)cc1C#N [Compound 105] | > 5
31 | CC(C)Oc1ccc(-c2ncc(-c3cccc4c3CC[C@@H]4NCC(=O)N3CCC[C@H](O)C3)s2)cc1C#N [Compound 106] | > 5
32 | CC(C)Oc1ccc(-c2ncc(-c3cccc4c3CC[C@@H]4NCC(=O)N3CCNCC3)s2)cc1C#N [Compound 107] | 0.5 to 5
33 | CC(C)Oc1ccc(-c2ncc(-c3cccc4c3CC[C@@H]4NCC(=O)N3CCNCC3)s2)cc1C#N [Compound 108] | > 5
34 | CC(C)Oc1ccc(-c2ncc(-c3cccc4c3CC[C@@H]4NCc3ncc[nH]3)s2)cc1C#N [Compound 110, (S)-5-(5-(1-(((1H-imidazol-2-yl)methyl)amino)-2,3-dihydro-1H-inden-4-yl)thiazol-2-yl)-2-isopropoxybenzonitrile] | 0.5 to 5
35 | CC(C)Oc1ccc(-c2ncc(-c3cccc4c3CC[C@@H]4NS(C)(=O)=O)s2)cc1C#N [Compound 112, (S)-N-(4-(2-(3-cyano-4-isopropoxyphenyl)thiazol-5-yl)-2,3-dihydro-1H-inden-1-yl)methanesulfonamide] | 0.05 to 0.5
36 | CCS(=O)(=O)N[C@H]1CCc2c(-c3cnc(-c4ccc(OC(C)C)c(C#N)c4)s3)cccc21 [Compound 113] | 0.05 to 0.5
37 | COCCS(=O)(=O)N[C@H]1CCc2c(-c3cnc(-c4ccc(OC(C)C)c(C#N)c4)s3)cccc21 [Compound 115] | 0.05 to 0.5
38 | COCCS(=O)(=O)N[C@H]1CCc2c(-c3cnc(-c4ccc(OC(C)C)c(C#N)c4)s3)cccc21 [Compound 116] | 0.5 to 5
39 | CC(C)Oc1ccc(-c2ncc(-c3cccc4c3CC[C@@H]4NS(=O)(=O)C3CC3)s2)cc1C#N [Compound 117] | 0.05 to 0.5
40 | CC(C)Oc1ccc(-c2ncc(-c3cccc4c3CC[C@@H]4NS(=O)(=O)CCN3CCOCC3)s2)cc1C#N [Compound 121] | 0.5 to 5
41 | CC(C)Oc1ccc(-c2ncc(-c3cccc4c3CC[C@@H]4NS(=O)(=O)CCN(C)C)s2)cc1C#N [Compound 123] | 0.5 to 5
42 | CNCCS(=O)(=O)N[C@H]1CCc2c(-c3cnc(-c4ccc(OC(C)C)c(C#N)c4)s3)cccc21 [Compound 125] | 0.5 to 5
43 | CC(C)Oc1ccc(-c2ncc(-c3cccc4c3CC[C@@H]4NS(=O)(=O)CCN3CCC3)s2)cc1C#N [Compound 127] | 0.5 to 5
44 | CC(C)Oc1ccc(-c2ncc(-c3cccc4c3CC[C@@H]4NS(=O)(=O)CCN3CCC3)s2)cc1C#N [Compound 128] | > 5
45 | CC(C)Oc1ccc(-c2ncc(-c3cccc4c3CC[C@@H]4NS(=O)(=O)CCN3CCCC3)s2)cc1C#N [Compound 129] | > 5
46 | CC(C)Oc1ccc(-c2ncc(-c3cccc4c3CC[C@@H]4NS(=O)(=O)CCN3CCCC3)s2)cc1C#N [Compound 130] | 0.5 to 5
47 | CC(C)Oc1ccc(-c2ncc(-c3cccc4c3CC[C@@H]4NS(=O)(=O)CCN3CC[C@H](O)C3)s2)cc1C#N [Compound 131] | 0.5 to 5
48 | CC(C)Oc1ccc(-c2ncc(-c3cccc4c3CC[C@@H]4NS(=O)(=O)CCN3CC[C@H](N)C3)s2)cc1C#N [Compound 135] | > 5
49 | CC(C)Oc1ccc(-c2ncc(-c3cccc4c3CC[C@@H]4NS(=O)(=O)CCN3CC[C@H](N(C)C)C3)s2)cc1C#N [Compound 137] | > 5
50 | CC(C)Oc1ccc(-c2ncc(-c3cccc4c3CC[C@@H]4NS(=O)(=O)CCN3CC[C@@H](N(C)C)C3)s2)cc1C#N [Compound 138] | > 5
51 | CC(C)Oc1ccc(-c2ncc(-c3cccc4c3CC[C@@H]4NS(=O)(=O)CCN3CCCCC3)s2)cc1C#N [Compound 139] | > 5
52 | CC(C)Oc1ccc(-c2ncc(-c3cccc4c3CC[C@@H]4NS(=O)(=O)CCN3CCC[C@H](O)C3)s2)cc1C#N [Compound 142] | 0.5 to 5
53 | CC(C)Oc1ccc(-c2ncc(-c3cccc4c3CC[C@@H]4NS(=O)(=O)CCN3CCC[C@H](O)C3)s2)cc1C#N [Compound 144] | 0.5 to 5
54 | CC(C)Oc1ccc(-c2ncc(-c3cccc4c3CC[C@@H]4NS(=O)(=O)CCN3CCC(O)CC3)s2)cc1C#N [Compound 145] | > 5

— patent US8507538B2, “Selective heterocyclic sphingosine 1 phosphate receptor modulators” (Receptos, Inc., priority 2009, dated 2013)
